# Tests used:
# [1] = test system: OVA-induced allergic rhinitis; assay: Rat allergic nasal inflammation (OVA-induced allergic rhinitis), intranasal administration; type: in vivo, SD rat; details: all dose groups of the peptide; bilateral nasal cavities 50 μL/side, 4 weeks, continued OVA provocation
# Protocol: SD rat modeling: two stages of intraperitoneal injection for sensitization and intranasal dripping for stimulation. Ovalbumin was injected intraperitoneally, and 1 mg ovalbumin (V-class Sigma, USA) was dissolved in 1 ml normal saline, and 30 mg of aluminum hydroxide was added as an immunologic adjuvant. Each rat was intraperitoneally injected 1 ml ovalbumin suspension prepared above with 1 ml/time every other day and for 7 times in total; and stimulated intranasally with ovalbumin on the 15th day; 20 mg ovalbumin (V-class Sigma, USA) were dissolved in 1 ml normal saline to be prepared into a 2% solution; and the 2% ovalbumin solution was used for stimulation by nasal dripping; and 50 ul nasal drips were administered in each of the nasal cavities of each rat for 7 consecutive days.
# Blank control group: 30 mg of aluminum hydroxide+1 ml of normal saline were mixed evenly, and then injected intraperitoneally; and the method was the same as the above.
# Normal saline was dripped into nasal cavities on the 15th day.
# After the final nasal dripping was performed, each rat was observed and evaluated according to a scoring table: Sneezing, nose scratching, gasping and nasal secretions
# 1. Administration way: a drug was administered with a micro-sampling gun, bilateral nasal cavities of a rat were administered with 50 μL/side, after being administered for 20 min, a 2% ovalbumin solution was administered to bilateral nasal cavities of the rat; 50 μL/side nasal dripping was administered for provocation; the above treatment was performed for 4 consecutive weeks to observe the pharmacodynamic effect.
# High-dose synthetic peptide brap: a synthetic peptide brap freeze-dried powder (5 mg/bottle) was taken, and 1.63 ml sterile saline solution was added for dissolving;
# medium-dose synthetic peptide brap: a synthetic peptide brap freeze-dried powder (5 mg/bottle) was taken, and 4.89 ml sterile saline solution was added for dissolving;
# low-dose synthetic peptide brap: a synthetic peptide brap freeze-dried powder (5 mg/bottle) was taken, and 14.67 ml sterile saline solution was added for dissolving;
# [2] = test system: LPS-induced acute lung injury; assay: LPS-induced acute lung injury in mice, HE pathological examination of lung tissues; type: in vivo, Balb/C mice; details: 16 mg/kgBW via tail vein once/day; LPS 5 mg/kgBW i.p.
# Protocol: 1. Grade-SPF male Balb/C mice, body weight: 20±2 g, and n=48
# 3. Grouping and treatment: mice were randomly divided into 8 groups (A-H), 6 pcs./group;
# 3-1: 3 different treatments were given for 3 consecutive days respectively before modeling:
# A. normal control group: normal saline was injected via the tail vein for once/day;
# B. LPS model group: normal saline was injected via the tail vein for once/day;
# C. model sp2 administration group: sp2 (16 mg/kgBW) was injected via the tail vein for once/day;
# D. model high-dose brap administration group: brap (16 mg/kgBW) was injected via the tail vein for once/day;
# E. model medium-dose brap administration group: brap (8 mg/kgBW) was injected via the tail vein for once/day;
# F. model low-dose brap administration group: brap (4 mg/kgBW) was injected via the tail vein for once/day;
# G. model brap intranasal administration group: brap (3 mM) was administered nasal administration on both sides, 15 μl/each side; once a day;
# H. model dexamethasone administration group (a positive control group): dexamethasone, DEX, 5 mg/kg was injected intraperitoneally for once a day.
# Animals from groups A-H were continuously administered the above treatments for 30 min respectively, then group A was intraperitoneally injected isopyknic normal saline, and other groups were intraperitoneally injected LPS 5 mg/kgBW.
# 1. Tissue section and extending
# 2. Tissues were dewaxed and hydrated.
# 3. Tissues were dyed with a hematoxylin stain for 5-20 min (adjusted according to different tissues and experimental requirements), and washed by tap water.
# 4. Then, tissues were differentiated by a differentiation solution for 30 s.
# 5. Tissues were soaked by tap water for 15 min or warm water (about 50° C.) for 5 min.
# 6. Tissues were put in an Eosin stain for 2 min (adjusted according to different tissues and experimental requirements), and washed by tap water.
# 7. Then, the tissues were soaked by tap water for 5 min.
# 8. Dehydration by gradient alcohol: Tissues were dehydrated by 95%, 100% I, and 100% II for 1 min each;
# 9. Transparency by xylene: tissues were subjected to xylene I and II for 10 min.
# 10. Neutral balsam mounting.
# 11. Then, it was put and dried in an oven at 60° C., and observed under microscope.
substance,measurement,setting,value
sp2: control synthetic peptide with an amino acid sequence as shown in SEQ ID No: 2 (RVLNGPEEEAAAPAE) [reference compound],Scoring change before and after treatment,[1],increases
same,Lung tissue pathology (HE),[2],inflammatory cell infiltration is obvious

# — patent publication US11401303B2, “Synthetic peptide BRAP and application in preparation of anti-inflammatory drug for COVID-19 thereof” (TAIAN CITY QIHANG BIOTECHNOLOGY CO., priority 2020, dated 2022)
